Measurements reported in the NIST ThermoML archive (doi:10.1021/je100594u).
Where “and” joins values, the source holds several entries; their conditions need not be identical. Equal entries are not always repeated. ± gives the expanded uncertainty stated by the source.

Columns and labels:
[1] = xn = mol fraction of the nth substance listed; conditions: 298.15 K, 101.3 kPa, Liquid; for viscosity: Capillary tube (Ostwald / Ubbelohde) method; for speed of sound: Linear variable-path acoustic interferometer; for mass density: Pycnometric method
[2] = refractive index (Na D-line) (dimensionless); xn = mol fraction of the nth substance listed; conditions: 298.15 K, 101.3 kPa, Liquid
[3] = 298.15 K, 101.3 kPa, Liquid; for viscosity: Capillary tube (Ostwald / Ubbelohde) method; for speed of sound: Linear variable-path acoustic interferometer; for mass density: Pycnometric method
[4] = refractive index (Na D-line) (dimensionless); conditions: 298.15 K; 101.33 kPa; Liquid

`C1COCO1` [1,3-dioxolane] + CCCCCO showed a viscosity ([1]; x1 = 0.1168) of 2.505 ± 0.019 mPa·s, a viscosity ([1]; x1 = 0.2293) of 1.885 ± 0.015 mPa·s and a viscosity ([1]; x1 = 0.3377) of 1.44 ± 0.011 mPa·s. For the same compound, the viscosity ([1]; x1 = 0.4424) was 1.063 ± 0.0085 mPa·s, the viscosity ([1]; x1 = 0.5434) was 0.9063 ± 0.0073 mPa·s and the viscosity ([1]; x1 = 0.6409) was 0.756 ± 0.0062 mPa·s. For the same compound, the viscosity ([1]; x1 = 0.7352) was 0.6472 ± 0.0054 mPa·s, the viscosity ([1]; x1 = 0.8264) was 0.5704 ± 0.0048 mPa·s and the viscosity ([1]; x1 = 0.9146) was 0.5413 ± 0.0046 mPa·s. For the same compound, the viscosity ([1]; x1 = 1) was 0.5894 ± 0.0049 mPa·s, the speed of sound ([1]; x1 = 0.1168) was 1278.8 ± 1.7 m/s and the speed of sound ([1]; x1 = 0.2293) was 1287.5 ± 1.7 m/s. It also gave a speed of sound ([1]; x1 = 0.3377) of 1296.8 ± 1.7 m/s, a speed of sound ([1]; x1 = 0.4424) of 1305 ± 1.7 m/s and a speed of sound ([1]; x1 = 0.5434) of 1313.4 ± 1.7 m/s. For the same compound, the speed of sound ([1]; x1 = 0.6409) was 1321.5 ± 1.7 m/s, the speed of sound ([1]; x1 = 0.7352) was 1327.1 ± 1.7 m/s and the speed of sound ([1]; x1 = 0.8264) was 1332.7 ± 1.7 m/s. It also gave a speed of sound ([1]; x1 = 0.9146) of 1337 ± 1.7 m/s, a speed of sound ([1]; x1 = 1) of 1339.5 ± 1.7 m/s and a mass density ([1]; x1 = 0.1168) of 832.9 ± 0.7 kg/m3. The mass density ([1]; x1 = 0.2293) was 854.5 ± 0.7 kg/m3, the mass density ([1]; x1 = 0.3377) was 876.6 ± 0.7 kg/m3 and the mass density ([1]; x1 = 0.4424) was 899.2 ± 0.7 kg/m3. The mass density ([1]; x1 = 0.5434) was 922.5 ± 0.7 kg/m3, the mass density ([1]; x1 = 0.6409) was 946.8 ± 0.7 kg/m3 and the mass density ([1]; x1 = 0.7352) was 972.5 ± 0.7 kg/m3. The mass density ([1]; x1 = 0.8264) was 999.3 ± 0.7 kg/m3, the mass density ([1]; x1 = 0.9146) was 1028.2 ± 0.7 kg/m3 and the mass density ([1]; x1 = 1) was 1058.7 ± 0.7 kg/m3. It also gave a refractive index ([2]; x1 = 0.1168) of 1.4085 ± 0.0013, a refractive index ([2]; x1 = 0.2293) of 1.4072 ± 0.0013 and a refractive index ([2]; x1 = 0.3377) of 1.406 ± 0.0013. For the same compound, the refractive index ([2]; x1 = 0.4424) was 1.405 ± 0.0013, the refractive index ([2]; x1 = 0.5434) was 1.404 ± 0.0013 and the refractive index ([2]; x1 = 0.6409) was 1.403 ± 0.0013. For the same compound, the refractive index ([2]; x1 = 0.7352) was 1.4022 ± 0.0013, the refractive index ([2]; x1 = 0.8264) was 1.401 ± 0.0013 and the refractive index ([2]; x1 = 0.9146) was 1.4 ± 0.0013. It also gave a refractive index ([2]; x1 = 1) of 1.3985 ± 0.0013.
`CCCCCO` [pentan-1-ol] + C1COCO1 showed a viscosity ([1]; x2 = 0) of 3.504 ± 0.026 mPa·s, a speed of sound ([1]; x2 = 0) of 1271.6 ± 1.7 m/s and a mass density ([1]; x2 = 0) of 811.2 ± 0.7 kg/m3. The refractive index ([2]; x2 = 0) was 1.41 ± 0.0013.
In the case of `CCOCC` [diethyl ether] + C1COCO1, the viscosity ([1]; x2 = 0) is reported as 0.2469 ± 0.0024 mPa·s, the viscosity ([1]; x2 = 0.1) is reported as 0.2656 ± 0.0026 mPa·s and the viscosity ([1]; x2 = 0.2) is reported as 0.2844 ± 0.0027 mPa·s. For the same compound, the viscosity ([1]; x2 = 0.3001) was 0.3055 ± 0.0029 mPa·s, the viscosity ([1]; x2 = 0.4001) was 0.331 ± 0.0031 mPa·s and the viscosity ([1]; x2 = 0.5001) was 0.3604 ± 0.0033 mPa·s. It also gave a viscosity ([1]; x2 = 0.6001) of 0.3944 ± 0.0035 mPa·s, a viscosity ([1]; x2 = 0.7001) of 0.4345 ± 0.0038 mPa·s and a viscosity ([1]; x2 = 0.8) of 0.4784 ± 0.0041 mPa·s. The viscosity ([1]; x2 = 0.9) was 0.5305 ± 0.0045 mPa·s, the speed of sound ([1]; x2 = 0) was 982.3 ± 1.5 m/s and the speed of sound ([1]; x2 = 0.1) was 1003.9 ± 1.5 m/s. For the same compound, the speed of sound ([1]; x2 = 0.2) was 1033.4 ± 1.6 m/s, the speed of sound ([1]; x2 = 0.3001) was 1067.4 ± 1.6 m/s and the speed of sound ([1]; x2 = 0.4001) was 1108.5 ± 1.6 m/s. The speed of sound ([1]; x2 = 0.5001) was 1152.8 ± 1.6 m/s and 1149.2 ± 1.6 m/s, the speed of sound ([1]; x2 = 0.6001) was 1191.4 ± 1.7 m/s and the speed of sound ([1]; x2 = 0.7001) was 1230.9 ± 1.7 m/s. The speed of sound ([1]; x2 = 0.8) was 1265.3 ± 1.7 m/s, the speed of sound ([1]; x2 = 0.9) was 1302.4 ± 1.7 m/s and the mass density ([1]; x2 = 0) was 708.3 ± 0.6 kg/m3. For the same compound, the mass density ([1]; x2 = 0.1) was 736.4 ± 0.7 kg/m3, the mass density ([1]; x2 = 0.2) was 765.6 ± 0.7 kg/m3 and the mass density ([1]; x2 = 0.3001) was 796.3 ± 0.7 kg/m3. For the same compound, the mass density ([1]; x2 = 0.4001) was 829 ± 0.7 kg/m3, the mass density ([1]; x2 = 0.5001) was 863.4 ± 0.7 kg/m3 and the mass density ([1]; x2 = 0.6001) was 899.7 ± 0.7 kg/m3. For the same compound, the mass density ([1]; x2 = 0.7001) was 938.2 ± 0.7 kg/m3, the mass density ([1]; x2 = 0.8) was 977 ± 0.7 kg/m3 and the mass density ([1]; x2 = 0.9) was 1018.4 ± 0.8 kg/m3. It also gave a refractive index ([2]; x2 = 0) of 1.3515 ± 0.0013, a refractive index ([2]; x2 = 0.1) of 1.3568 ± 0.0013 and a refractive index ([2]; x2 = 0.2) of 1.3604 ± 0.0013. The refractive index ([2]; x2 = 0.3001) was 1.3649 ± 0.0013, the refractive index ([2]; x2 = 0.4001) was 1.3696 ± 0.0013 and the refractive index ([2]; x2 = 0.5001) was 1.3743 ± 0.0013 and 1.375 ± 0.0013. For the same compound, the refractive index ([2]; x2 = 0.6001) was 1.3791 ± 0.0013, the refractive index ([2]; x2 = 0.7001) was 1.3842 ± 0.0013 and the refractive index ([2]; x2 = 0.8) was 1.3893 ± 0.0013. For the same compound, the refractive index ([2]; x2 = 0.9) was 1.3956 ± 0.0013.
In the case of `CCCCCO` [pentan-1-ol] + CCOCC, the viscosity ([1]; x2 = 0) is reported as 3.504 ± 0.026 mPa·s, the speed of sound ([1]; x2 = 0) is reported as 1271.6 ± 1.7 m/s and the mass density ([1]; x2 = 0) is reported as 811.2 ± 0.7 kg/m3. For the same compound, the refractive index ([2]; x2 = 0) was 1.41 ± 0.0013.
Compound `CCOCC` [diethyl ether] + CCCCCO has a viscosity ([1]; x1 = 0.1167) of 2.651 ± 0.02 mPa·s, a viscosity ([1]; x1 = 0.2292) of 1.966 ± 0.015 mPa·s and a viscosity ([1]; x1 = 0.3377) of 1.491 ± 0.012 mPa·s. It also gave a viscosity ([1]; x1 = 0.4423) of 1.123 ± 0.0089 mPa·s, a viscosity ([1]; x1 = 0.5433) of 0.8294 ± 0.0068 mPa·s and a viscosity ([1]; x1 = 0.6409) of 0.6199 ± 0.0052 mPa·s. It also gave a viscosity ([1]; x1 = 0.7352) of 0.4811 ± 0.0042 mPa·s, a viscosity ([1]; x1 = 0.8263) of 0.382 ± 0.0034 mPa·s and a viscosity ([1]; x1 = 0.9146) of 0.3141 ± 0.0029 mPa·s. The viscosity ([1]; x1 = 1) was 0.2469 ± 0.0024 mPa·s, the speed of sound ([1]; x1 = 0.1167) was 1241.8 ± 1.7 m/s and the speed of sound ([1]; x1 = 0.2292) was 1216.7 ± 1.7 m/s. For the same compound, the speed of sound ([1]; x1 = 0.3377) was 1193.9 ± 1.7 m/s, the speed of sound ([1]; x1 = 0.4423) was 1172.2 ± 1.6 m/s and the speed of sound ([1]; x1 = 0.5433) was 1141.6 ± 1.6 m/s. The speed of sound ([1]; x1 = 0.6409) was 1110.7 ± 1.6 m/s, the speed of sound ([1]; x1 = 0.7352) was 1077.3 ± 1.6 m/s and the speed of sound ([1]; x1 = 0.8263) was 1046.3 ± 1.6 m/s. The speed of sound ([1]; x1 = 0.9146) was 1011.2 ± 1.6 m/s, the speed of sound ([1]; x1 = 1) was 982.3 ± 1.5 m/s and the mass density ([1]; x1 = 0.1167) was 805.2 ± 0.7 kg/m3. The mass density ([1]; x1 = 0.2292) was 797.5 ± 0.7 kg/m3, the mass density ([1]; x1 = 0.3377) was 788.9 ± 0.7 kg/m3 and the mass density ([1]; x1 = 0.4423) was 779.7 ± 0.7 kg/m3. The mass density ([1]; x1 = 0.5433) was 770.4 ± 0.7 kg/m3, the mass density ([1]; x1 = 0.6409) was 759.5 ± 0.7 kg/m3 and the mass density ([1]; x1 = 0.7352) was 747.9 ± 0.7 kg/m3. It also gave a mass density ([1]; x1 = 0.8263) of 736.1 ± 0.7 kg/m3, a mass density ([1]; x1 = 0.9146) of 723 ± 0.7 kg/m3 and a mass density ([1]; x1 = 1) of 708.3 ± 0.6 kg/m3. It also gave a refractive index ([2]; x1 = 0.1167) of 1.4043 ± 0.0013, a refractive index ([2]; x1 = 0.2292) of 1.3977 ± 0.0013 and a refractive index ([2]; x1 = 0.3377) of 1.3922 ± 0.0013. For the same compound, the refractive index ([2]; x1 = 0.4423) was 1.3874 ± 0.0013, the refractive index ([2]; x1 = 0.5433) was 1.3825 ± 0.0013 and the refractive index ([2]; x1 = 0.6409) was 1.3774 ± 0.0013. It also gave a refractive index ([2]; x1 = 0.7352) of 1.3724 ± 0.0013, a refractive index ([2]; x1 = 0.8263) of 1.3664 ± 0.0013 and a refractive index ([2]; x1 = 0.9146) of 1.3601 ± 0.0013. It also gave a refractive index ([2]; x1 = 1) of 1.3515 ± 0.0013.
With `C1COCO1` [1,3-dioxolane] + CCOCC the viscosity ([1]; x1 = 1) was 0.5894 ± 0.0049 mPa·s, the speed of sound ([1]; x1 = 1) was 1339.4 ± 1.7 m/s and the mass density ([1]; x1 = 1) was 1058.7 ± 0.7 kg/m3. It also gave a refractive index ([2]; x1 = 1) of 1.3985 ± 0.0013.
For `CCCCCO` [pentan-1-ol], the viscosity [3] was 3.504 ± 0.026 mPa·s and 3.404 ± 0.025 mPa·s, the speed of sound [3] was 1271.6 ± 1.7 m/s and the mass density [3] was 811.2 ± 0.7 kg/m3. The refractive index [4] was 1.41 ± 0.0013.
For `CCOCC` [diethyl ether], the viscosity [3] was 0.2469 ± 0.0024 mPa·s, the speed of sound [3] was 982.3 ± 1.5 m/s and the mass density [3] was 708.3 ± 0.6 kg/m3. For the same compound, the refractive index [4] was 1.3515 ± 0.0013.
In the case of `C1COCO1` [1,3-dioxolane], the viscosity [3] is reported as 0.5894 ± 0.0049 mPa·s, the speed of sound [3] is reported as 1339.4 ± 1.7 m/s and 1339.5 ± 1.7 m/s and the mass density [3] is reported as 1058.7 ± 0.7 kg/m3. The refractive index [4] was 1.3985 ± 0.0013.
